Legend:
[1] = Liquid, Ebulliometric method (Recirculating still)
[2] = refractive index (Na D-line) (dimensionless); conditions: 298.15 K; 101.33 kPa; Liquid; Standard Abbe refractometry

O=C1CCCCC1 [cyclohexanone]
[1]
Conditions	vapor or sublimation pressure [kPa]
343.15 K	5.57
353.15 K	8.6
363.15 K	13.07
373.15 K	18.9
385.45 K	29.1
394.05 K	38.41
401.35 K	48.2
407.35 K	57.43
414.75 K	70.59
419.8 K	81.35
424.05 K	91.55
427.8 K	101.1

Conditions	refractive index
[2]	1.4481

ClC(Cl)C(Cl)Cl [1,1,2,2-tetrachloroethane]
[1]
Conditions	vapor or sublimation pressure [kPa]
343.15 K	7.24
353.15 K	11.23
363.15 K	16.65
373.15 K	24.17
379.75 K	30.48
389.55 K	42.33
396.35 K	52.48
401.55 K	61.35
405.55 K	69.05
409.55 K	77.59
413.45 K	86.66
416.45 K	94.27
418.95 K	101.08

Conditions	refractive index
[2]	1.492

O=C1CCCC1 [cyclopentanone]
[1]
Conditions	vapor or sublimation pressure [kPa]
323.15 K	5.31
333.15 K	8.49
343.15 K	13.03
353.15 K	19.61
358.85 K	24.48
363.15 K	28.61
363.45 K	29.04
372.25 K	39.48
378.35 K	48.32
384.15 K	57.77
388.85 K	67.18
393.25 K	76.67
397.65 K	87.37
399.75 K	92.98
403.05 K	101.76

Conditions	refractive index
[2]	1.4349

— the NIST ThermoML archive (doi:10.1016/j.jct.2006.01.010)
